Molecular target: T1, wild-type human cardiac sodium channel, hNav1.5 (late sodium current) (Homo sapiens, UniProt Q14524)
T1 construct: host or cells: HEK293
Assay: Late INa screening assay (PatchXpress whole cell patch clamp)
Assay type: cell-based
Details: 1 μM test compound; HEK293 hNav1.5; late INa generated with 10 μM Tefluthrin (some experiments 50 nM ATX II); read-out: Late INa % blk (1 μM test cmpd)
In short: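 Late sodium current block was assessed by automated whole cell patch clamp on a PatchXpress 7000A using HEK293 cells stably expressing wild-type human hNav1.5 without beta subunits. Late current was induced with 10 μM Tefluthrin or 50 nM ATX II. Channels were stepped from −120 mV to −20 mV for 250 ms at 0.1 Hz at 24-27° C. Current was normalized to 0Na baseline and expressed as percent block.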

T1 sequence (Q14524 whole entry): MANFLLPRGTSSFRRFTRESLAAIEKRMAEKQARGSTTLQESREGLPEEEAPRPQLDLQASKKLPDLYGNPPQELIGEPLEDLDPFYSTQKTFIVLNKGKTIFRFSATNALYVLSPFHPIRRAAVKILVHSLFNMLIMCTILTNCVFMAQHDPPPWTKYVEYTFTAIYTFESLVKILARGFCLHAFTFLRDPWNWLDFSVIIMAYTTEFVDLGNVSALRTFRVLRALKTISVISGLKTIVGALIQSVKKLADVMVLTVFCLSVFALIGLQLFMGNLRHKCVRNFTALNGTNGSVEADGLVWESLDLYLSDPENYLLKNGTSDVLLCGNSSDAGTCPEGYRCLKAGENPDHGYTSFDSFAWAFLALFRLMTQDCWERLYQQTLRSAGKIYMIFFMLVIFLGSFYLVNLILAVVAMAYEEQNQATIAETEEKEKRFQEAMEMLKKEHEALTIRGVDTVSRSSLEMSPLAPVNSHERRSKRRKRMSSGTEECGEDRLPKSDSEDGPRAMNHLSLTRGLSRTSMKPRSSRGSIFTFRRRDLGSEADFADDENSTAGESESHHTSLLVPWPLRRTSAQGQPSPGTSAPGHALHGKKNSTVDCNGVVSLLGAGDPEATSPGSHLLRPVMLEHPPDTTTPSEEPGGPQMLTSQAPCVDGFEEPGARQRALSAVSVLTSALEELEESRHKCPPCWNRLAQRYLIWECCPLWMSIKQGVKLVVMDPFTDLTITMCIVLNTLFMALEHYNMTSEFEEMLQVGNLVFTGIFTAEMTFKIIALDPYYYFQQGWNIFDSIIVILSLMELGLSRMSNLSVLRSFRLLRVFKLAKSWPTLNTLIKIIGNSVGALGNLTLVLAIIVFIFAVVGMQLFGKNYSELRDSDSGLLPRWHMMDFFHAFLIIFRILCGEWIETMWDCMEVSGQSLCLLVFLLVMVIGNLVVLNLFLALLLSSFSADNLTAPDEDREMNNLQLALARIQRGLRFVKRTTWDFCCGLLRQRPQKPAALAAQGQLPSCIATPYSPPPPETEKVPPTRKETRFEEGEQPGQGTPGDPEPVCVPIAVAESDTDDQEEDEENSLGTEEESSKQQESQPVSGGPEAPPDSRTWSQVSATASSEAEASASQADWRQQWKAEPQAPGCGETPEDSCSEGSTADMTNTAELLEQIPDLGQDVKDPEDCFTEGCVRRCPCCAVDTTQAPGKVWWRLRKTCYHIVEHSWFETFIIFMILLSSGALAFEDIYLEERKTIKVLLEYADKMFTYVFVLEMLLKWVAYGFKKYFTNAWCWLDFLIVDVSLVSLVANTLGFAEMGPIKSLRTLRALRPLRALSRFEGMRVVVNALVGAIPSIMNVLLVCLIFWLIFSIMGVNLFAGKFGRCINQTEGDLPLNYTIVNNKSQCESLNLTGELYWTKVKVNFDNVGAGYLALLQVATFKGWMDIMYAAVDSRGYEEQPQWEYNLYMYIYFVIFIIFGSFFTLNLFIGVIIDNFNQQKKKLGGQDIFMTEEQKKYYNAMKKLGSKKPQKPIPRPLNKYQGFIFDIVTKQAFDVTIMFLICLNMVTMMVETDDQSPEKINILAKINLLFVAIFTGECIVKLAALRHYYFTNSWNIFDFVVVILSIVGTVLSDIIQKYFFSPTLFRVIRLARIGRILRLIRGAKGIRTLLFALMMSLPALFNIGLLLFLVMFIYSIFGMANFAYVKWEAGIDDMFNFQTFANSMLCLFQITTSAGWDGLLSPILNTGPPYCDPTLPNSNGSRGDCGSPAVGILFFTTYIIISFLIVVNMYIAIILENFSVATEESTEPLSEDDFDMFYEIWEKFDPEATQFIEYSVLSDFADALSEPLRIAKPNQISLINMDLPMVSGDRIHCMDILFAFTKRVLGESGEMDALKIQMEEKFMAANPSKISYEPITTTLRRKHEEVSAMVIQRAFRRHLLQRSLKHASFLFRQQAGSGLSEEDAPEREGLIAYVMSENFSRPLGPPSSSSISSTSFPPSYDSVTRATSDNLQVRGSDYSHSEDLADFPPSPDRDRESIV

| SMILES | inhibition at 1 µM |
| --- | --- |
| Cc1cc(-c2ccc(Oc3ccccc3)cc2)c(Cl)cc1NS(C)(=O)=O [PT-041, N-(2-chloro-5-methyl-4′-phenoxybiphenyl-4-yl)methanesulfonamide] | 45% |
| CS(=O)(=O)Nc1ccc(-c2cccc(OC(F)(F)F)c2)c(Cl)c1 [PT-021, N-[2-chloro-3′-(trifluoromethoxy)biphenyl-4-yl]methanesulfonamide] | 34% |
| CS(=O)(=O)Nc1ccc(-c2ccc(Cl)c(C(F)(F)F)c2)c(Cl)c1 [PT-058, N-[2,4′-dichloro-3′-(trifluoromethyl)biphenyl-4-yl]methanesulfonamide] | 42.5% |

Same assay, conditions: 10 μM test compound; HEK293 hNav1.5; late INa generated with 10 μM Tefluthrin (some experiments 50 nM ATX II); read-out: Late INa % blk (10 μM test cmpd)

| SMILES | inhibition at 10 µM |
| --- | --- |
| Cc1cc(-c2ccc(Oc3ccccc3)cc2)c(Cl)cc1NS(C)(=O)=O [PT-041, N-(2-chloro-5-methyl-4′-phenoxybiphenyl-4-yl)methanesulfonamide] | 59.3% |
| CC(C)NC(=O)c1cc(NS(C)(=O)=O)ccc1-c1ccc(Oc2ccccc2)cc1 [PT-140, N-isopropyl-4-(methylsulfonamido)-4′-phenoxybiphenyl-2-carboxamide] | 47.4% |
| CC(C)Oc1ccc(-c2ccc(NS(C)(=O)=O)c(Cl)c2)cc1 [PT-148, N-(3-chloro-4′-isopropoxybiphenyl-4-yl)methanesulfonamide] | 36.2% |
| CS(=O)(=O)Nc1ccc(-c2ccc(F)c(Cl)c2)cc1 [PT-007, N-(3′-chloro-4′-fluorobiphenyl-4-yl)methanesulfonamide] | 34.9% |
| CS(=O)(=O)Nc1ccc(-c2ccc(OC(F)(F)F)cc2)c(Cl)c1 [PT-094, N-[2-chloro-4′-(trifluoromethoxy)biphenyl-4-yl]methanesulfonamide] | 5.6% |
| CS(=O)(=O)Nc1ccc(-c2cc(F)c(F)c(F)c2)c(Cl)c1 [PT-071, N-(2-chloro-3′,4′,5′-trifluorobiphenyl-4-yl)methanesulfonamide] | 59.5% |
| O=S(=O)(Nc1ccc(-c2ccc(Oc3ccccc3)cc2)cc1OC(F)(F)F)C1CC1 [PT-114, N-[4′-phenoxy-3-(trifluoromethoxy)biphenyl-4-yl]cyclopropanesulfonamide] | 14.1% |
| CS(=O)(=O)Nc1ccc(-c2cccc(OC(F)(F)F)c2)c(Cl)c1 [PT-021, N-[2-chloro-3′-(trifluoromethoxy)biphenyl-4-yl]methanesulfonamide] | 77.5% |
| Cc1cc(NS(C)(=O)=O)ccc1-c1ccc(F)c(F)c1 [PT-057, N-(3′,4′-difluoro-2-methylbiphenyl-4-yl)methanesulfonamide] | 35.9% |
| CS(=O)(=O)Nc1cccc(-c2ccc(Oc3ccc(C(=O)O)cc3)cc2)c1 [PT-131, 4-(3′-(methylsulfonamido)biphenyl-4-yloxy)benzoic acid] | 20.8% |
| N#Cc1cc(NS(=O)(=O)C2CC2)ccc1-c1ccc(C(F)(F)F)cc1 [PT-130, N-(2-cyano-4′-(trifluoromethyl)biphenyl-4-yl)cyclopropanesulfonamide] | 26% |
| Cc1cc(N(Cc2ccc(CC(=O)O)cc2)S(=O)(=O)C2CC2)ccc1-c1ccc(Oc2ccccc2)cc1 [PT-133, 2-(4-((N-(2-methyl-4′-phenoxybiphenyl-4-yl)cyclopropanesulfonamido)methyl)phenyl)acetic acid] | 34.1% |
| CS(=O)(=O)Nc1ccc(-c2cccc(OC(F)(F)F)c2)cc1 [PT-008, N-[3′-(trifluoromethoxy)biphenyl-4-yl]methanesulfonamide] | 39.4% |
| CS(=O)(=O)Nc1ccc(-c2ccc(Cl)c(C(F)(F)F)c2)c(Cl)c1 [PT-058, N-[2,4′-dichloro-3′-(trifluoromethyl)biphenyl-4-yl]methanesulfonamide] | 78.5% |
| CS(=O)(=O)N(CCN1CCOCC1)c1ccc(-c2ccc(Cl)c(F)c2)c(Cl)c1 [PT-061, N-(2,4′-dichloro-3′-fluorobiphenyl-4-yl)-N-[2-(morpholin-4-yl)ethyl]methanesulfonamide] | 20.6% |
| Cc1cc(-c2ccc(Oc3ccccc3)cc2)c(F)cc1N(Cc1ccc(C(=O)O)cc1)S(C)(=O)=O [PT-142, 4-((N-(2-fluoro-5-methyl-4′-phenoxybiphenyl-4-yl)methylsulfonamido)methyl)benzoic acid] | 2.7% |
| CS(=O)(=O)Nc1ccc(-c2ccc(F)cc2Cl)cc1Cl [PT-098, N-(2′,3-dichloro-4′-fluorobiphenyl-4-yl)methanesulfonamide] | 36.4% |
| Cc1cc(NS(=O)(=O)C2CC2)ccc1-c1ccc(OC(C)C)cc1 [PT-151, N-(4′-isopropoxy-2-methylbiphenyl-4-yl)cyclopropanesulfonamide] | 32.6% |
